{
  "source": "patent US11478453B2",
  "about": "“Treatment for glioblastoma” (HADASIT MEDICAL RESEARCH SERVICES AND DEVELOPMENT LTD., priority 2016, dated 2022)",
  "key": {"T98G cells": {"tested_on": "T98G cells", "test": "Crystal violet cell viability, T98G glioma cells (single agents and combinations)", "description": "(§1) A172 and U87MG cells were cultured in DMEM-Eagle medium supplemented with 4 mmol/L L-glutamine, 100 units/ml penicillin and 100 μg/ml streptomycin, and 10% FBS Charcoal Stripped (Biological Industries, Israel). The T98G cells were cultured in Eagle's minimum essential medium supplemented with 4 mmol/L L-glutamine, 100 units/ml penicillin and 100 μg/ml streptomycin. To avoid the influence of FBS derived steroid hormone on AR, the cell media were supplemented with 10% charcoal/dextran-treated (stripped) FBS (Biological Industries). The cells were maintained in a humidified incubator at 37° C. in 5% CO2.\nThe effect of combination therapies that involve anti-AR signaling agents together with agents that target EGFR on AR modulation was examined in glial tumor cells expressing a ligand independent AR splice variant."}, "U87MG cells": {"tested_on": "U87MG cells", "test": "Crystal violet cell viability, U87MG glioma cells", "assay_type": "cell-based, human", "description": "as §1"}, "A172 cells": {"tested_on": "A172 cells", "test": "Crystal violet cell viability, A172 glioma cells", "assay_type": "cell-based", "description": "as §1"}, "[1]": {"settings": "Homo sapiens, 72 h, read-out: Cell viability, percentage of cells treated with vehicle"}, "[2]": {"settings": "Homo sapiens, 72 h, read-out: Cell viability, percentage of cells treated with DHT"}},
  "data": [
    {"smiles": "C#Cc1cccc(Nc2ncnc3cc(OCCOC)c(OCCOC)cc23)c1", "note": "[erlotinib]", "values": [
      {"measurement": "viability at 1.25 µM", "setting": "T98G cells; [1]", "value": 94, "unit": "%"},
      {"measurement": "viability at 10 µM", "setting": "T98G cells; [1]", "value": 63, "unit": "%"}
    ]},
    {"smiles": "CC(O)(CS(=O)(=O)c1ccc(F)cc1)C(=O)Nc1ccc(C#N)c(C(F)(F)F)c1", "note": "(stereo not shown) [bicalutamide]", "values": [
      {"measurement": "viability at 20 µM", "setting": "T98G cells; [2]", "value": 90, "unit": "%"},
      {"measurement": "viability at 80 µM", "setting": "T98G cells; [2]", "value": 59, "unit": "%"},
      {"measurement": "viability at 20 µM", "setting": "U87MG cells; Homo sapiens, U-87 MG, 20 uM, 72 hrs, with 10 μM DHT, read-out: Cell viability, percentage of cells treated with DHT", "value": 83, "unit": "%"},
      {"measurement": "viability at 80 µM", "setting": "U87MG cells; Homo sapiens, U-87 MG, 80 uM, 72 hrs, with 10 μM DHT, read-out: Cell viability, percentage of cells treated with DHT", "value": 31, "unit": "%"},
      {"measurement": "viability at 20 µM", "setting": "A172 cells; Homo sapiens, A 172, A172, 20 uM, 72 hrs, with 10 μM DHT, read-out: Cell viability, percentage of cells treated with DHT", "value": 90, "unit": "%"},
      {"measurement": "viability at 80 µM", "setting": "A172 cells; Homo sapiens, A 172, A172, 80 uM, 72 hrs, with 10 μM DHT, read-out: Cell viability, percentage of cells treated with DHT", "value": 43, "unit": "%"}
    ]},
    {"smiles": "C[C@]12CCC(=O)C[C@@H]1CC[C@@H]1[C@@H]2CC[C@]2(C)[C@@H](O)CC[C@@H]12", "note": "[DHT, 5α-dihydrotestosterone]", "values": [
      {"measurement": "Effect of DHT on cell viability versus vehicle", "setting": "T98G cells; 10 μM DHT, vehicle 0.15% ETOH", "value": "no effect on cell viability"},
      {"measurement": "Effect of DHT on cell viability versus vehicle", "setting": "U87MG cells; 10 μM DHT, vehicle 0.15% ETOH", "value": "no effect on cell viability"},
      {"measurement": "Effect of DHT on cell viability versus vehicle", "setting": "A172 cells; A172, 10 μM DHT, vehicle 0.15% ETOH", "value": "no effect on cell viability"}
    ]},
    {"smiles": "CN(C)C/C=C/C(=O)Nc1cc2c(Nc3ccc(F)c(Cl)c3)ncnc2cc1O[C@H]1CCOC1", "note": "[afatinib]", "values": [
      {"measurement": "viability at 1.25 µM", "setting": "T98G cells; [1]", "value": 92, "unit": "%"},
      {"measurement": "viability at 5 µM", "setting": "T98G cells; [1]", "value": 47, "unit": "%"}
    ]}
  ]
}
